Results from patent US10450549B2, “Aryloxyphenoxypropionate tolerance in turfrgass species and use of AAD1 as a selectable marker” (Dow AgroSciences, LLC, priority 2004, dated 2019).

Assays:
[1] = tested on: AAD1 (v3)-transformed T1 Arabidopsis; test: T1 Arabidopsis response to postemergence herbicide (2,4-D, dichlorprop, haloxyfop, fluroxypyr), % visual injury 2 WAT: AAD1 (v3) transformants; assay type: in vivo, Arabidopsis thaliana; settings: for resistance/tolerance in AAD1 (v3)-transformed T1 Arabidopsis: haloxyfop 400-1,600 g ae/ha, fluroxypyr; for % Injury Ave / individuals with 20-40% injury / individuals with <20% injury / individuals with >40% injury / % Injury Range / % Injury 20-40% / % Injury <20% / % Injury >40%: 2 WAT; for % Injury 20-40% / % Injury <20% / % Injury >40%: number of individuals
Description: Freshly harvested T1 seed (transformed with native [AAD1 (v2)] or plant optimized [AAD1 (v3)] gene) was allowed to dry for 7 days at room temperature. T1 seed was sown in 26.5×51-cm germination trays (T.O. Plastics Inc., Clearwater, Minn.), each receiving a 200 mg aliquots of stratified T1 seed (˜10,000 seed) that had previously been suspended in 40 ml of 0.1% agarose solution and stored at 4° C. for 2 days to complete dormancy requirements and ensure synchronous seed germination.
Sunshine Mix LP5 (Sun Gro Horticulture Inc., Bellevue, Wash.) was covered with fine vermiculite and subirrigated with Hoagland's solution until wet, then allowed to gravity drain. Each 40 ml aliquot of stratified seed was sown evenly onto the vermiculite with a pipette and covered with humidity domes (KORD Products, Bramalea, Ontario, Canada) for 4-5 days. Domes were removed 1 day prior to initial transformant selection using glufosinate postemergence spray (selecting for the co-transformed PAT gene).
Five to six days after planting (DAP) and again 10 DAP, T1 plants (cotyledon and 2-4-1f stage, respectively) were sprayed with a 0.2% solution of Liberty herbicide (200 g ai/L glufosinate, Bayer Crop Sciences, Kansas City, Mo.) at a spray volume of 10 ml/tray (703 L/ha) using a DeVilbiss compressed air spray tip to deliver an effective rate of 280 g ai/ha glufosinate per application. Survivors (plants actively growing) were identified 5-7 days after the final spraying and transplanted individually into 3-inch pots prepared with potting media (Metro Mix 360). Transplanted plants were covered with humidity domes for 3-4 days and placed in a 22° C. growth chamber as before. Domes were subsequently removed and plants moved to the greenhouse (22+5° C., 50+30% RH, 14 h light:10 dark, minimum 500 μE/m^2s^1 natural+supplemental light) at least 1 day prior to testing for the ability of AAD1 (v3) (plant optimized gene) or AAD1 (v2) (native microbial gene) to provide phenoxy auxin herbicide resistance.
Random individual T1 plants selected for glufosinate resistance above were confirmed for expression of the PAT protein using a PAT ELISA kit (Part no. 7000045, Strategic Diagnostics, Inc., Newark, Del.) to non-destructively confirm fidelity of selection process (manufacturer's protocol). Plants were then randomly assigned to various rates of phenoxy herbicides (dichlorprop or 2,4-D). […] Elevated rates were applied in subsequent trials (50, 200, 800, or 3200 g ae/ha).
All auxin herbicide applications were made using the DeVilbiss sprayer as described above to apply 703 L/ha spray volume (0.4 ml solution/3-inch pot) or applied by track sprayer in a 187 L/ha spray volume. […] Dichlorprop used was technical grade (Sigma, St. Louis, Mo.) dissolved in DMSO and diluted in water (<1% DMSO final concentration). As herbicide rates increased beyond 800 g ae/ha, the pH of the spray solution became exceedingly acidic, burning the leaves of young, tender Arabidopsis plants and complicating evaluation of the primary effects of the herbicides. It became standard practice to apply these high rates of phenoxy herbicides in 200 mM Tris buffer (pH 9.0) to a final pH of ˜7-8.
Although Arabidopsis, being a dicot, is not an optimal system for testing ACCase-inhibiting AOPP grass herbicides, AAD1 (v3)-transformed T1 plants were subjected to elevated rates (400-1600 g ae/ha) of RS-haloxyfop acid (internally synthesized) that do cause growth abnormalities and death of wildtype Arabidopsis using the DeVilbiss sprayer as described above. Injury ratings were taken 7 and 14 days after treatment. Likewise, T1 individuals were treated with the pyridyloxyacetate auxin herbicide, fluroxypyr.
Table 16. […] Response is presented in terms of % visual injury 2 WAT. […] Since each T1 is an independent transformation event, one can expect significant variation of individual T1 responses within a given rate. An arithmetic mean and standard deviation is presented for each treatment. […]

wt ARBTH = test: In vitro plate test of herbicide cross resistance: wild-type Arabidopsis; assay type: in vivo, Arabidopsis thaliana; settings: 7 days
Procedure, shortened: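 Surface-sterilised seeds sown in nutrient agar dosed with test compounds from DMSO stocks (final DMSO ≤1% v/v; DMSO-only control), grown 7 days at 25 °C under continuous light (75 μE m^−2 s^−1). Shoot growth reduction scored visually; root length measured (≥5 plants averaged) vs control. I50 calculated for root and shoot.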

[2] = Rebuilt AAD1 (v3) gene, 50 g ae/ha
[3] = Rebuilt AAD1 (v3) gene, 200 g ae/ha
[4] = Rebuilt AAD1 (v3) gene, 800 g ae/ha

## Nc1c(Cl)c(F)nc(OCC(=O)O)c1Cl [Fluroxypyr]
[1]
  resistance/tolerance in AAD1 (v3)-transformed T1 Arabidopsis: No resistance was observed
Wt ARBTH
  wt ARBTH root 150: 0.2 ppm
  wt ARBTH shoot 150: 2 ppm

## O=C(O)COc1ccc(Cl)cc1Cl [2,4-D, 2,4-dichlorophenoxyacetic acid]
[1]; 3,200 g ae/ha
  injury of some AAD1 (v3) T1 individuals: little or no injury
[1]; AAD1 (v3), 200 g ae/ha
  T1 plants uninjured: > 73%
[1]; [2]
  % Injury Ave: 24.3%
  individuals with 20-40% injury: 1
  individuals with <20% injury: 10
  individuals with >40% injury: 5
[1]; [3]
  % Injury Ave: 14%
  individuals with 20-40% injury: 4
  individuals with <20% injury: 11
  individuals with >40% injury: 1
[1]; [4]
  % Injury Ave: 14.7%
  individuals with 20-40% injury: 4
  individuals with <20% injury: 11
  individuals with >40% injury: 1
Wt ARBTH
  wt ARBTH root 150: <0.01 ppm
  wt ARBTH shoot 150: 0.2 ppm

## CC(Oc1ccc(Cl)cc1Cl)C(=O)O (racemic) [(R,S)-dichlorprop, 2,4-dichlorophenoxypropionic acid]
[1]; AAD1 v3, 12.5 g ae/ha
  % Injury Ave: 5.0%
  % Injury Range: 0-20%
  individuals with 20-40% injury: 1
  individuals with <20% injury: 7
  individuals with >40% injury: 0
[1]; AAD1 v3, 50 g ae/ha
  % Injury Ave: 3.1%
  % Injury Range: 0-25%
  individuals with 20-40% injury: 1
  individuals with <20% injury: 7
  individuals with >40% injury: 0
[1]; AAD1 v3, 200 g ae/ha
  % Injury Ave: 40.0%
  % Injury Range: 0-100%
  individuals with 20-40% injury: 1
  individuals with <20% injury: 4
  individuals with >40% injury: 3
[1]; AAD1 v3, 800 g ae/ha
  % Injury Ave: 51.9%
  % Injury Range: 20-100%
  individuals with 20-40% injury: 5
  individuals with <20% injury: 0
  individuals with >40% injury: 3
Wt ARBTH
  wt ARBTH root 150: 0.01 ppm
  wt ARBTH shoot 150: 2 ppm

## CC(Oc1ccc(Oc2ncc(C(F)(F)F)cc2Cl)cc1)C(=O)O (stereo not shown) [haloxyfop]
[1]; 100 g ae/ha, AAD1 v3
  % Injury Ave: 0.0%
  % Injury Range: 0%
  % Injury 20-40%: 0
  % Injury <20%: 4
  % Injury >40%: 0
[1]; 200 g ae/ha, AAD1 v3
  % Injury Ave: 0.0%
  % Injury Range: 0%
  % Injury 20-40%: 0
  % Injury <20%: 4
  % Injury >40%: 0
[1]; 400 g ae/ha, AAD1 v3
  % Injury Ave: 6.3%
  % Injury Range: 0-20%
  % Injury 20-40%: 1
  % Injury <20%: 3
  % Injury >40%: 0
[1]; 800 g ae/ha, AAD1 v3
  % Injury Ave: 46.3%
  % Injury Range: 0-85%
  % Injury 20-40%: 1
  % Injury <20%: 1
  % Injury >40%: 2
[1]; 1600 g ae/ha, AAD1 v3
  % Injury Ave: 65.0%
  % Injury Range: 0-100%
  % Injury 20-40%: 0
  % Injury <20%: 1
  % Injury >40%: 3
[1]
  resistance/tolerance in AAD1 (v3)-transformed T1 Arabidopsis: increased tolerance
